Values quoted from earlier work in US7241583B2, “TRL1 as an antifungal target” (Oxford Glycosciences (UK) Ltd, priority 2002, dated 2007).

Conditions: mice; DOX 2 mg/ml in 5% sucrose solution as drinking water, approx. 5 ml per day

**Q.** For `C[C@H]1c2cccc(O)c2C(O)=C2C(=O)[C@]3(O)C(O)=C(C(N)=O)C(=O)[C@@H](N(C)C)[C@@H]3[C@@H](O)[C@@H]21` [DOX, doxycycline], which “concentration of DOX in kidney” value is on record?
**A.** The value was > 10 mg/g of kidney.

**Q.** And the “concentration of DOX in liver” value?
**A.** The value was > 8 mg/g of liver.

**Q.** And the “concentration of DOX in serum” value?
**A.** Its value is “more than 2 mg/ml of serum”.
